From US9993462B2, “Hydantoin derivative-containing pharmaceutical composition” (Chugai Seiyaku Kabushiki Kaisha, priority 2014, dated 2018)

Assays:
[1] = biological target: T1, human PTH1R (Homo sapiens, UniProt Q03431); test: In vitro cAMP signal activity via the human PTH1R (HKRK-B7 cells); format: cell-based; conditions: concentration at 20% cAMP signaling activity, human PTH(1-34) at 100 nM = 100%
T1 construct: expressed in transfected cells; host or cells: HKRK-B7 (LLC-PK1 porcine kidney cells stably expressing human PTH1R)
T1 sequence (Q03431 27-593): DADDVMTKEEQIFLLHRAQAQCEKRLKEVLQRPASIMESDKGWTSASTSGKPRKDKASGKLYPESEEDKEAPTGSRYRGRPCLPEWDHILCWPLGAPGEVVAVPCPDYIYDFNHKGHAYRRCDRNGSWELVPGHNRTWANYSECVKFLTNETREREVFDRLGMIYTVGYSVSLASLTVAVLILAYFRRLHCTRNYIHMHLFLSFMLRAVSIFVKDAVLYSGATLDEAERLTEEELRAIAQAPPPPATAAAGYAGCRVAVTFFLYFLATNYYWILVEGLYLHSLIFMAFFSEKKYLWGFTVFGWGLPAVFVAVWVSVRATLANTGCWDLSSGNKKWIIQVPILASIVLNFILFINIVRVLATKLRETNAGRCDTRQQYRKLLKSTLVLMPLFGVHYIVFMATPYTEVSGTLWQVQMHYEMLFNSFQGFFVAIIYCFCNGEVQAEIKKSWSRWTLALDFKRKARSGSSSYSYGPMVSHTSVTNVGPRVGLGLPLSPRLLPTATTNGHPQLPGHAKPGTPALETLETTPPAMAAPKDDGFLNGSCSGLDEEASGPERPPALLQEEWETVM
Protocol: Human PTH(1-34) and calcitonin were purchased from Peptide Institute, Inc. (Osaka, Japan), dissolved in 10 mM acetic acid to 1 mM and stored in a −80° C. freezer.
Cells were cultured in Dulbecco's modified Eagle's medium (DMEM) supplemented with 10% fetal bovine serum (Hyclone), 100 units/ml penicillin G and 100 μg/ml streptomycin sulfate (Invitrogen Corp) at 37° C. in a humidified atmosphere containing 5% CO2.
cAMP signal transduction analysis utilized LLC-PK1 cells not expressing the PTH1R, and HKRK-B7 cells, that is, LLC-PK1 cells overexpressing the human PTH1R at 9.5×10^5 receptors/cell (Takasu et al., J. Bone. Miner. Res. 14:11-20, 1999).
HKRK-B7 or LLC-PK1 cells were seeded into a 96-well plate at 1×10^5 cells/well and incubated overnight. On the following day, 50 μl of cAMP assay buffer (DMEM, 2 mM IBMX, 0.2 mg/ml bovine serum albumin, 35 mM Hepes-NaOH, pH 7.4) containing human PTH(1-34) or each compound was added and the plate was placed in a 37° C. incubator. The cells were incubated for 20 minutes. After removing the medium, the cells were washed with 100 μl of cAMP assay buffer once. The plate was placed on dry ice powder to freeze the cells and then removed from the dry ice. The cells were lysed with 40 μl of 50 mM HCl and frozen again on dry ice. The amount of intracellular cAMP produced was measured using a commercially available cAMP EIA kit (Biotrack cAMP EIA system, GE health care).
Analyses were performed using a variable gradient S-shaped dose-response curve equation.

[2] = biological target: T2, rat PTH1R (Rattus norvegicus, UniProt P25961); test: In vitro cAMP signaling activity via the rat PTH1R (LLC-PK46_RATO_PTH1R cells); format: cell-based; conditions: LLC-PK46_RATO_PTH1R cells overexpressing rat PTH1R
T2 construct: expressed in transfected cells
T2 sequence (P25961 27-591): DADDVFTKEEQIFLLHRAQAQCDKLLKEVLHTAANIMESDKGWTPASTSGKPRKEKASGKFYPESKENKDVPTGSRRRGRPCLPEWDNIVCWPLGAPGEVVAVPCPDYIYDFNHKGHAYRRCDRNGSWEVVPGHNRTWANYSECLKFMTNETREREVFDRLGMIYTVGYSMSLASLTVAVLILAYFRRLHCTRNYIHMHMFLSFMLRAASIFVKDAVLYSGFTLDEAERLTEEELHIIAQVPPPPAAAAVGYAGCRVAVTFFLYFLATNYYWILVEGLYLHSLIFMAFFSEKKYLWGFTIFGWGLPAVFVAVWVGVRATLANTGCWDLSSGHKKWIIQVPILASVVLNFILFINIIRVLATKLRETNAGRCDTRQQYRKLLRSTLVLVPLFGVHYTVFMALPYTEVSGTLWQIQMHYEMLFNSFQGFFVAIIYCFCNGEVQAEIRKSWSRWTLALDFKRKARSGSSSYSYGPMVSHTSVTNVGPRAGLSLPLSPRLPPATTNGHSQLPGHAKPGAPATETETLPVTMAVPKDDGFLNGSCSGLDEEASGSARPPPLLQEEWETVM
Description: Instead of HKRK-B7 cells, LLC-PK46_RATO_PTH1R cells overexpressing rat PTH1R, which were established at Chugai Pharmaceutical, were used to take measurements in a similar manner to Reference Test Example 1.

[3] = tested on: rat hepatocyte; test: Metabolic stability using rat hepatocyte; format: in vitro ADME
Protocol: Liver cells were prepared from the liver of rats (SD, female) by a collagenase perfusion method. A compound of the Reference Examples or a Comparative Example was added, and this was incubated at 37° C. for a specified amount of time, followed by addition of a reaction-stopping solution. The concentration of the parent compound at each reaction time was measured using LC/MS/MS, and inherent clearance (μL/10^6 cells/min) was calculated from the slope of the reaction time versus residual rate.
• Cell concentration: 1×10^6 cells/mL • Compound concentration: 1 μM • Medium: Williams' medium E • Reaction time: 0, 15, 30, 60, 120, and 240 minutes • Reaction-stopping solution: acetonitrile/2-propanol (4/6, v/v)

[4] = tested on: TPTX rat; test: Calcemic action in the TPTX rat model; format: in vivo; conditions: TPTX rats, 30 mg/kg oral; for change of serum Ca concentration from the Pre-value (in words): up to 24 hours after administration
Protocol: Four-week old female Crl:CD(SD) rats were obtained from Charles River Japan (Atsugi Breeding Center), and were acclimated to standard laboratory conditions of 20-26° C. and 35-75% humidity for one week. The rats were given tap water and were fed ad libitum with standard rodent chow (CE-2) (CLEA Japan, Inc.) containing 1.1% calcium, 1.0% phosphoric acid, and 250 IU/100 g of vitamin D3.
TPTX was performed on five-week old rats. Some of the individuals were subjected to sham operation (Sham). Individuals whose serum Ca concentration was less than 8 mg/dL on four days after the operation were selected for use as TPTX rats. On five days after the operation, the rats were assigned to eight TPTX groups and one Sham group (n=5, each group) based on their body weight and serum Ca concentration measured on four days after the operation. The solvent alone was orally administered to the Sham group and the TPTX-Vehicle group at a volume of 10 mL/kg. Each test article was orally administered individually to each TPTX test article group by dissolving it in a solvent at a dose of 30 mg/10 mL/kg. The solvent composition was 10% dimethylsulfoxide (Wako Pure Chemical Industries, Ltd.), 10% Cremophor EL (Sigma-Aldrich Japan LLC), 20% hydroxypropyl-β-cyclodextrin (Nihon Shokuhin Kako Co., Ltd.), glycine (Wako Pure Chemical Industries, Ltd.); and the pH was adjusted to 10. Immediately before administration of each sample, Pre-blood collection was performed, and blood collection was carried out at 2, 6, 10, and 24 hours after administration to measure the serum Ca concentration. Each blood collection was carried out from the jugular vein under isoflurane inhalation anesthesia.
Serum Ca measurement: Serum obtained by centrifugation from the collected blood was measured by using an automatic analyzer TBA-120FR (Toshiba Medical Systems Corporation).
For statistical analysis of the animal studies, data are shown as mean±standard error (SE). Statistical analysis were performed by unpaired test of the SAS Preclinical Package (Ver. 5.00.010720, SAS Institute Japan, Tokyo, Japan).

Row | SMILES | EC20 [1] | EC20 [2] | rat hepatocyte metabolic stability compared to Comparative Examples 1, 2, 3, 5, and 6 (in words) [3] | achievement of the therapeutic target range of serum Ca concentration of 7.6 to 8.8 mg/dL [4] | change of serum Ca concentration from the Pre-value (in words) [4]
1 | Cc1cc(N2C(=O)NC(=O)C23COC3)cc(C)c1CCS(=O)(=O)N1CCC2(CC1)N=C(c1ccc(OC(F)(F)F)cc1)NC2=O [Compound 10, 5-(3,5-dimethyl-4-(2-((4-oxo-2-(4-(trifluoromethoxy)phenyl)-1,3,8-triazaspiro[4.5]deca-1-en-8-yl)sulfonyl)ethyl)phenyl)-2-oxa-5,7-diazaspiro[3.4]octane-6,8-dione] | 5.0 µM | 3.0 µM | increased | – | –
2 | Cc1cc(N2C(=O)NC(=O)C23CC3)cc(C)c1CCS(=O)(=O)N1CCC2(CC1)N=C(c1ccc(OC(F)(F)F)cc1)NC2=O [Compound 11, 4-(3,5-dimethyl-4-(2-((4-oxo-2-(4-(trifluoromethoxy)phenyl)-1,3,8-triazaspiro[4.5]deca-1-en-8-yl)sulfonyl)ethyl)phenyl)-4,6-diazaspiro[2.4]heptane-5,7-dione] | 1.5 µM | 0.8 µM | increased | – | –
3 | Cc1cc(N2C(=O)CNC2=O)ccc1CCS(=O)(=O)N1CCC2(CC1)N=C(c1cccc(OC(F)(F)F)c1)NC2=O [Comparative Example 1, reference compound] | 1.5 µM | 0.8 µM | – | could not be achieved | smaller positive changes from the Pre-value
4 | Cc1cc(N2C(=O)NC(=O)C2(C)C)cc(C)c1CCS(=O)(=O)N1CCC2(CC1)N=C(c1cccc(C(F)(F)F)c1)NC2=O [Compound 6, 1-(3,5-dimethyl-4-(2-((4-oxo-2-(3-(trifluoromethyl)phenyl)-1,3,8-triazaspiro[4.5]deca-1-en-8-yl)sulfonyl)ethyl)phenyl)-5,5-dimethylimidazolidine-2,4-dione] | 2.0 µM | – | increased | achieved the therapeutic target range | large positive changes from the Pre-value
5 | Cc1cc(N2C(=O)NC(=O)C23CCCC3)cc(C)c1CCS(=O)(=O)N1CCC2(CC1)N=C(c1ccc(OC(F)(F)F)cc1)NC2=O [Compound 8, 1-(3,5-dimethyl-4-(2-((4-oxo-2-(4-(trifluoromethoxy)phenyl)-1,3,8-triazaspiro[4.5]deca-1-en-8-yl)sulfonyl)ethyl)phenyl)-1,3-diazaspiro[4.4]nonane-2,4-dione] | – | 0.4 µM | increased | achieved the therapeutic target range | large positive changes from the Pre-value
6 | Cc1cc(N2C(=O)NC(=O)C2(C)C)cc(C)c1CCS(=O)(=O)N1CCC2(CC1)N=C(c1ccc(OC(F)(F)F)c(F)c1)NC2=O [Compound 4, 1-(4-(2-((2-(3-fluoro-4-(trifluoromethoxy)phenyl)-4-oxo-1,3,8-triazaspiro[4.5]deca-1-en-8-yl)sulfonyl)ethyl)-3,5-dimethylphenyl)-5,5-dimethylimidazolidine-2,4-dione] | 1.6 µM | – | increased | – | –
